# In patent US20210122763A1, “OGA INHIBITOR COMPOUNDS” (Janssen Pharmaceutica NV, priority 2018, published 2021):
# Legend:
# OGA = target: T1, OGA (Homo sapiens, UniProt O60502); assay: OGA cellular assay (ICC detection of O-GlcNAcylated proteins in HEK293 cells inducible for P301L mutant human Tau); format: cell-based; conditions: 6 hours incubation; for Emax: HEK293, HEK293 cells inducible for P301L mutant human Tau, maximum = Thiamet G 200 uM; for EC50: HEK293 cells inducible for P301L mutant human Tau, read-out: Cellular hOGA, pEC50 (converted)
# T1 construct: HEK293 cells inducible for P301L mutant human Tau (isoform 2N4R) were established at Janssen; endogenous in cells; host or cells: HEK293 cells inducible for P301L mutant human Tau (2N4R)
# T1 sequence (O60502 1-916): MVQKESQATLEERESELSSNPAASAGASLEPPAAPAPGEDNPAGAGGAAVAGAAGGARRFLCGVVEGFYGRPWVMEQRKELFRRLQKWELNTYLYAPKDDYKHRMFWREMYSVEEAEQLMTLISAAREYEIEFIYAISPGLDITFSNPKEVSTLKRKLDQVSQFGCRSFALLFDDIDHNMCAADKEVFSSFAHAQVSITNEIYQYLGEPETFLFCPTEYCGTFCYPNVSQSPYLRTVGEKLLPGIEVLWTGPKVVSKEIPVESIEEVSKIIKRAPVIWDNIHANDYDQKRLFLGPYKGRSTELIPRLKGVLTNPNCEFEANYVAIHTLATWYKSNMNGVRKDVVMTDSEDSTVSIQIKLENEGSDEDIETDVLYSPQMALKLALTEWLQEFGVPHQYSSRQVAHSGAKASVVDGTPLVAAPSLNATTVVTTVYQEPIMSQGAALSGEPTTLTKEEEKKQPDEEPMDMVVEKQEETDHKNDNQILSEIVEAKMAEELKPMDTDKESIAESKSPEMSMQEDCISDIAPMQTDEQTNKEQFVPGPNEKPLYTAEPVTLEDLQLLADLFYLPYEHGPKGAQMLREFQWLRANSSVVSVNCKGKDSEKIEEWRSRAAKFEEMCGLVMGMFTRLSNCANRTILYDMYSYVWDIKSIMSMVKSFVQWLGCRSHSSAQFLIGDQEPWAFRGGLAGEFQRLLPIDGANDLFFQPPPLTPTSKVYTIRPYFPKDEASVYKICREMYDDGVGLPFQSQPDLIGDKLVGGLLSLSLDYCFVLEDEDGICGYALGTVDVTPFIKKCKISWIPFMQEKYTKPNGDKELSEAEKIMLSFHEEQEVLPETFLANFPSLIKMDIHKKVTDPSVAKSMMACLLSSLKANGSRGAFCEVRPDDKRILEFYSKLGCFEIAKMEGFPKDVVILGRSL
# Protocol: HEK293 cells inducible for P301L mutant human Tau (isoform 2N4R) were established at Janssen. Thiamet-G was used for both plate validation (high control) and as reference compound (reference EC50 assay validation). OGA inhibition is evaluated through the immunocytochemical (ICC) detection of O-GlcNAcylated proteins by the use of a monoclonal antibody (CTD110.6; Cell Signaling, #9875) detecting 0-GlcNAcylated residues as previously described (Dorfmueller et al. 2010 Chemistry & biology, 17:1250). Inhibition of OGA will result in an increase of 0-GlcNAcylated protein levels resulting in an increased signal in the experiment. Cell nuclei are stained with Hoechst to give a cell culture quality control and a rough estimate of immediate compounds toxicity, if any. ICC pictures are imaged with a Perkin Elmer Opera Phenix plate microscope and quantified with the provided software Perkin Elmer Harmony 4.1.
# Cells were propagated in DMEM high Glucose (Sigma, #D5796) following standard procedures. 2 days before the cell assay cells are split, counted and seeded in Poly-D-Lysine (PDL) coated 96-wells (Greiner, #655946) plate at a cell density of 12,000 cells per cm^2 (4,000 cells per well) in 100p of Assay Medium (Low Glucose medium is used to reduce basal levels of GlcNAcylation) (Park et al. 2014 The Journal of biological chemistry 289:13519). At the day of compound test medium from assay plates was removed and replenished with 90 μl of fresh Assay Medium. 10 μl of compounds at a 10 fold final concentration were added to the wells. Plates were centrifuged shortly before incubation in the cell incubator for 6 hours. DMSO concentration was set to 0.2%. Medium is discarded by applying vacuum. For staining of cells medium was removed and cells washed once with 100 μl D-PBS (Sigma, #D8537). From next step onwards unless other stated assay volume was always 50p and incubation was performed without agitation and at room temperature. Cells were fixed in 50 μl of a 4% paraformaldehyde (PFA, Alpha aesar, #043368) PBS solution for 15 minutes at room temperature. […] Before analysis samples were washed 2 times manually for 5 minutes in ICC base buffer.
# Imaging is performed using Perkin Elmer Phenix Opera using a water 20× objective and recording 9 fields per well. Intensity readout at 488 nm is used as a measure of O-GlcNAcylation level of total proteins in wells. To assess potential toxicity of compounds nuclei were counted using the Hoechst staining. IC50-values are calculated using parametric non-linear regression model fitting. As a maximum inhibition Thiamet G at a 200 uM concentration is present on each plate. In addition, a concentration response of Thiamet G is calculated on each plate.
# [1] = target: T2, recombinant human Meningioma Expressed Antigen 5 (MGEA5), also referred to as O-GlcNAcase (OGA) (Homo sapiens, UniProt O60502); assay: OGA biochemical assay (inhibition of FM-GlcNAc hydrolysis, fluorescence); conditions: for Emax: read-out: Enzymatic Emax (%); for IC50: read-out: Enzymatic hOGA, pIC50 (converted)
# T2 construct: Full length OGA enzyme was purchased at OriGene (cat #TP322411); purchased OriGene TP322411
# T2 sequence (O60502 1-916): T1 sequence (O60502 1-916)
# Excerpt: The assay is based on the inhibition of the hydrolysis of fluorescein mono-B-D-N-Acetyl-Glucosamine (FM-GcNAc) (Mariappa et al. 2015, Biochem J470:255) by the recombinant human Meningioma Expressed Antigen 5 (MGEA5), also referred to as O-GlcNAcase (OGA). The hydrolysis FM-GlcNAc (Marker Gene technologies, cat #M1485) results in the formation of B-D-N-glucosamineacetate and fluorescein. The fluorescence of the latter can be measured at excitation wavelength 485 nm and emission wavelength 538 nm. An increase in enzyme activity results in anincrease in fluorescence signal. Full length OGA enzyme was purchased at OriGene (cat #TP322411). The enzyme was stored in 25 mM Tris.HCl, pH 7.3, 100 mM glycine, 10% glycerol at −20° C. Thiamet G and GlcNAcStatin were tested as reference compounds (Yuzwa et al. 2008 Nature Chemical Biology 4:483; Yuzwa et al. 2012 Nature Chemical Biology 8:393). The assay was performed in 200 mM Citrate/phosphate buffer supplemented with 0.005% Tween-20. 35.6 g Na2HPO4 2H2O (Sigma, #C0759) were dissolved in 1 L water to obtain a 200 mM solution. 19.2 g citric acid (Merck, #1.06580) was dissolved in 1 L water to obtain a 100 mM solution. pH of the sodiumphosphate solution was adjusted with the citric acid solution to 7.2. The buffer to stop the reaction consists of a 500 mM Carbonate buffer, pH 11.0. 734 mg FM-GlcNAc were dissolved in 5.48 mL DMSO to obtain a 250 mM solution and was stored at −20° C. OGA was used at a 2 nM concentration and FM-GcNAc at a 100 uM final concentration. Dilutions were prepared in assay buffer.
# 50 nl of a compound dissolved in DMSO was dispensed on Black Proxiplate™ 384 Plus Assay plates (Perkin Elmer, #6008269) and 3 μl fl-OGA enzyme mix added subsequently. Plates were pre-incubated for 60 min at room temperature and then 2 μl FM-GlcNAc substrate mix added.
# Plates were briefly centrifuged for 1 min at 1000 rpm and incubate at room temperature for 6 h. To stop the reaction 5 μl STOP buffer were added and plates centrifuge again 1 min at 1000 rpm. Fluorescence was quantified in the Thermo Scientific Fluoroskan Ascent or the PerkinElmer EnVision with excitation wavelength 485 nm and emission wavelength 538 nm.
# For analysis a best-fit curve is fitted by a minimum sum of squares method. From this an IC50 value and Hill coefficient was obtained. High control (no inhibitor) and low control (saturating concentrations of standard inhibitor) were used to define the minimum and maximum values.
SMILES,Emax (OGA),EC50 (OGA),Emax [1],IC50 [1],Enzymatic Emax (%) [1]
Cc1cc(OC2CCN(C(C)c3nc4c(cc3F)OCCO4)CC2)c(Cl)c(C)n1 (stereo not drawn) [Compound 65],101%,63.1 nM,99%,12.6 nM,–
Cc1cnnc(OC2CCN(C(C)c3ccc4c(n3)OCCO4)CC2)c1 (stereo not drawn) [Compound 77],35%,> 1000 nM,97%,200 nM,–
Cc1cc(OC2CCN(C(C)c3nc4c(cc3F)OCCO4)CC2)cc(C(F)(F)F)n1 (stereo not drawn) [Compound 18],79%,63.1 nM,101%,6.31 nM,–
COc1cc(OC2CCN(C(C)c3nc4c(cc3F)OCCO4)CC2)cc(C)n1 (stereo not drawn) [Compound 15],72%,50.1 nM,102%,5.01 nM,–
CC(c1ccc2c(n1)OCCO2)N1CCC(Oc2ccc(F)cn2)CC1 (stereo not drawn) [Compound 115],25%,> 1000 nM,96%,200 nM,–
"C[C@@H](c1nc2c(cc1F)OCCO2)N1CCC(Oc2ccc(C#N)nn2)CC1 (single isomer, unassigned) [Compound 86]",100%,100 nM,94%,15.8 nM,–
Cc1cc(OC2CCN(C(C)c3ccc4c(n3)OCCO4)CC2)ncc1C#N (stereo not drawn) [Compound 101],53%,501 nM,94%,100 nM,–
COc1nccnc1OC1CCN(C(C)c2ccc3c(n2)OCCO3)CC1 (stereo not drawn) [Compound 108],15%,> 1000 nM,101%,631 nM,–
Cc1cc(OC2CCN(C(C)c3ccc4c(n3)OCCO4)CC2)cc(C2CC2)n1 (stereo not drawn) [Compound 125],91%,126 nM,96%,31.6 nM,–
Cc1cc(OC2CCN(C(C)c3ccc4c(n3)OCCO4)CC2)nc(C)n1 (stereo not drawn) [Compound 9],–,–,102%,100 nM,–
Cc1cc(OC2CCN(C(C)c3cc4nc(C)sc4cc3F)CC2)cc(C)n1 (stereo not drawn) [Compound 8],89%,63.1 nM,100%,15.8 nM,–
"Cc1cc(OC2CCN([C@H](C)c3ccc4c(n3)OCCO4)CC2)cc(C(F)(F)F)n1 (single isomer, unassigned) [Compound 146]",2%,> 1000 nM,58%,6310 nM,–
Cc1cc(OCC2CCN(C(C)c3ccc4c(n3)OCCO4)CC2)cc(C)n1 (stereo not drawn) [Compound 75],39%,> 1000 nM,99%,398 nM,–
Cc1cc(COC2CCN(Cc3ccc4sc(C)nc4n3)CC2)cc(C)n1 [Compound 36],7%,> 1000 nM,90%,1260 nM,–
CC(c1ccc2c(n1)OCCO2)N1CCC(Oc2ccc(OC(F)(F)F)cn2)CC1 (stereo not drawn) [Compound 96],41%,> 1000 nM,99%,63.1 nM,–
Cc1cc(C(F)(F)F)cc(OC2CCN(C(C)c3nc4c(cc3F)OCCO4)CC2)n1 (stereo not drawn) [Compound 48],84%,251 nM,98%,20 nM,–
Cc1cc(OC2CCN(C(C)c3nc4c(cc3F)OCCO4)CC2)cc(C#N)n1 (stereo not drawn) [Compound 128],95%,50.1 nM,102%,7.94 nM,–
CC(c1ccc2c(n1)OCCO2)N1CCC(Oc2ncc(C#N)cc2F)CC1 (stereo not drawn) [Compound 105],16%,> 1000 nM,97%,398 nM,–
Cc1cc(OC2CCN(C(C)c3nc4nc(C)sc4cc3F)CC2)nc(C)n1 (stereo not drawn) [Compound 33],65%,251 nM,100%,15.8 nM,–
Cc1cc(OC2CCN(C(C)c3cnc4c(c3)OCC4)CC2)cc(C)n1 (stereo not drawn) [Compound 58],38%,–,89%,1260 nM,–
"COc1cc(OC2CCN([C@H](C)c3nc4nc(C)sc4cc3F)CC2)cc(C)n1 (single isomer, unassigned) [Compound 80]",7%,> 1000 nM,96%,631 nM,–
COc1cc(OC2CCN(C(C)c3ccc4c(n3)OCCO4)CC2)ccn1 (stereo not drawn) [Compound 72],60%,251 nM,101%,31.6 nM,–
Cc1cc(OC2CCN(C(C)c3cc4c(cn3)OCCO4)CC2)cc(C)n1 (stereo not drawn) [Compound 29],7%,> 1000 nM,60%,5010 nM,–
"Cc1cc(OC2CCN(C(C)c3ccc4c(n3)OCCO4)CC2)nc(C)n1 (single isomer, unassigned) [Compound 11]",–,–,–,2510 nM,84%
Cc1cc(OC2CCN(C(C)c3ccc4c(n3)OCCO4)CC2)cc(C)n1 (stereo not drawn) [Compound 1],–,–,101%,63.1 nM,–
